The values below come from patent US20050054708A1, “Combinations of drugs for the treatment of neoplasms” (priority 2003, published 2005).

One data set deals with A549 cells. Put plainly: Anti-proliferation assay (Alamar Blue metabolism). (Resazurin is reduced to fluorescent resorufin, in cell work by metabolically active cells.)
The conditions of data set [1]: cited from earlier work.

Read-outs that look alike come from different tables or passages of the source.
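For Percent inhibition of Alamar Blue Metabolism in this document: 384-well plates, 72–80 h exposure at 37 °C, Alamar Blue fluorescence (ex 530 nm) read 3.5–5 h after dye addition, inhibition relative to mean of vehicle-only wells.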

Protocol for A549 cells: Human non-small cells lung carcinoma cells A549 (ATCC# CCL-185), were grown at 37±0.5° C. and 5% CO2 in DMEM supplemented with 10% FBS, 2 mM glutamine, 1% penicillin, and 1% streptomycin.
Stock solutions (1000×) of each compound were prepared in DMSO and stored at −20° C. Master stock plates of 2-fold or 4-fold serial dilutions of individual compounds were prepared in 384-well plates. Combination matrices of test compounds were generated from these master stock plates by dilution into growth media described above. […] The combination matrices were used immediately and discarded.
The anti-proliferation assays were performed in 384-well plates. 6.6 μL of 10× stock solutions from the combination matrices were added to 40 μL of culture media in assay wells. The tumor cells were liberated from the culture flask using a solution of 0.25% trypsin. Cells were diluted in culture media such that 3000 or 6000 cells were delivered in 20 μL of media into each assay well. Assay plates were incubated for 72-80 hours at 37° C. ±0.5° C. with 5% CO2. Twenty microliters of 20% Alamar Blue warmed to 37° C. ±0.5° C. was added to each assay well following the incubation period. Alamar Blue metabolism was quantified by the amount of fluorescence intensity 3.5-5.0 hours after addition. Quantification, using an LJL Analyst AD reader (LJL Biosystems), was taken in the middle of the well with high attenuation, a 100 msec read time, an excitation filter at 530 nm, and an emission filter at 575 nm. For some experiments, quantification was performed using a Wallac Victor^2 reader. Measurements were taken at the top of the well with stabilized energy lamp control; a 100 msec read time, an excitation filter at 530 nm, and an emission filter at 590 nm.
The percent inhibition (% I) for each well was calculated using the following formula: % I=[(avg. untreated wells−treated well)/(avg. untreated wells)]×100 The average untreated well value (avg. untreated wells) is the arithmetic mean of 40 wells from the same assay plate treated with vehicle alone.
Inhibition of proliferation was measured by anti-proliferation assay as described below after incubation with the test compound(s) for 72 hours.

In general, inhibition refers to the change of the read-out against control, counted positive when it falls. With `O=c1[nH]cc(F)c(=O)[nH]1` [5-Fluorouracil, 5-fluorouracil], the inhibition at 0.01 µM with A549 cells (Homo sapiens, A549, read-out: Percent inhibition of Alamar Blue Metabolism, 5-fluorouracil 0.01 μM alone) came to 2.9%. Also, the inhibition at 0.1 µM in the data set on A549 cells (Homo sapiens, A549, read-out: Percent inhibition of Alamar Blue Metabolism, 5-fluorouracil 0.10 μM alone) is -0.5%. Further, in the data set on A549 cells (Homo sapiens, A549, read-out: Percent inhibition of Alamar Blue Metabolism, 5-fluorouracil 0.50 μM alone), the inhibition at 0.5 µM worked out at 40.6%. Moreover, the inhibition at 0.75 µM in the data set on A549 cells (Homo sapiens, A549, read-out: Percent inhibition of Alamar Blue Metabolism, 5-fluorouracil 0.75 μM alone) came out at 64.3%. Also, in the data set on A549 cells (Homo sapiens, A549, read-out: Percent inhibition of Alamar Blue Metabolism, 5-fluorouracil 1.00 μM alone), the inhibition at 1 µM was determined as 75.4%. Moreover, in the data set with A549 cells (Homo sapiens, A549, read-out: Percent inhibition of Alamar Blue Metabolism, 5-fluorouracil 1.50 μM alone), the inhibition at 1.5 µM was determined as 73.6%. Moreover, the inhibition at 2 µM in the data set with A549 cells (Homo sapiens, A549, read-out: Percent inhibition of Alamar Blue Metabolism, 5-fluorouracil 2.00 μM alone) was determined as 87.2%. Further, the inhibition at 5 µM in the data set with A549 cells (Homo sapiens, A549, read-out: Percent inhibition of Alamar Blue Metabolism, 5-fluorouracil 5.00 μM alone) worked out at 79.8%. For the same compound, the inhibition at 10 µM in the data set on A549 cells (Homo sapiens, A549, read-out: Percent inhibition of Alamar Blue Metabolism, 5-fluorouracil 10.00 μM alone) came out at 82.4%.

On to `N.N.O=C([O-])C1(C(=O)[O-])CCC1.[Pt+2]` [Carboplatin, carboplatin], for which the “Percent inhibition of Alamar Blue Metabolism” value is 5.5% with A549 cells (carboplatin 0.15 μM alone); 14.5% in the data set with A549 cells (carboplatin 0.30 μM alone); 9.8% in the data set with A549 cells (carboplatin 0.59 μM alone); −19.0% with A549 cells (carboplatin 1.19 μM alone); 13.9% with A549 cells (carboplatin 2.38 μM alone); 16.4% with A549 cells (carboplatin 4.75 μM alone). Also, the entries for the “Percent inhibition of Alamar Blue Metabolism” value in the data set on A549 cells (carboplatin 9.50 μM alone), in the data set with A549 cells (carboplatin 19.00 μM alone) and with A549 cells (carboplatin 38.00 μM alone) were 35.8%, 30.5% and 48.7%, respectively.

Take `COc1cccc2c1C(=O)c1c(O)c3c(c(O)c1C2=O)C[C@@](O)(C(=O)CO)C[C@@H]3O[C@H]1C[C@H](N)[C@H](O)[C@H](C)O1` [Doxorubicin, doxorubicin]: the inhibition at 0.0008 µM in the data set on A549 cells (Homo sapiens, A549, read-out: Percent inhibition of Alamar Blue Metabolism, doxorubicin 0.0008 μM alone) came to 32%. In addition, in the data set on A549 cells (Homo sapiens, A549, read-out: Percent inhibition of Alamar Blue Metabolism, doxorubicin 0.0016 μM alone), the inhibition at 0.0016 µM came out at 27.5%. For the same compound, the inhibition at 0.0031 µM in the data set on A549 cells (Homo sapiens, A549, read-out: Percent inhibition of Alamar Blue Metabolism, doxorubicin 0.0031 μM alone) was found to be 34.4%. The inhibition at 0.0063 µM in the data set on A549 cells (Homo sapiens, A549, read-out: Percent inhibition of Alamar Blue Metabolism, doxorubicin 0.0063 μM alone) was found to be 40.3%. In the data set on A549 cells (Homo sapiens, A549, read-out: Percent inhibition of Alamar Blue Metabolism, doxorubicin 0.0125 μM alone), the inhibition at 0.0125 µM stood at 55.6%. Moreover, in the data set on A549 cells (Homo sapiens, A549, read-out: Percent inhibition of Alamar Blue Metabolism, doxorubicin 0.0250 μM alone), the inhibition at 0.025 µM amounted to 63.8%. Further, the inhibition at 0.05 µM in the data set on A549 cells (Homo sapiens, A549, read-out: Percent inhibition of Alamar Blue Metabolism, doxorubicin 0.0500 μM alone) came out at 67.5%. Also, in the data set on A549 cells (Homo sapiens, A549, read-out: Percent inhibition of Alamar Blue Metabolism, doxorubicin 0.1000 μM alone), the inhibition at 0.1 µM was 63%. Also, in the data set on A549 cells (Homo sapiens, A549, read-out: Percent inhibition of Alamar Blue Metabolism, doxorubicin 0.2000 μM alone), the inhibition at 0.2 µM was 62.9%.

Turning to `COc1cc([C@@H]2c3cc4c(cc3[C@@H](O[C@@H]3O[C@@H]5CO[C@@H](C)O[C@H]5[C@H](O)[C@H]3O)[C@H]3COC(=O)[C@H]23)OCO4)cc(OC)c1O` [Etoposide, etoposide], the inhibition at 0.04 µM with A549 cells (Homo sapiens, A549, read-out: Percent inhibition of Alamar Blue Metabolism, etoposide 0.04 μM alone) worked out at 3.9%. For the same compound, the inhibition at 0.08 µM with A549 cells (Homo sapiens, A549, read-out: Percent inhibition of Alamar Blue Metabolism, etoposide 0.08 μM alone) was found to be 46.5%. In addition, the inhibition at 0.16 µM in the data set with A549 cells (Homo sapiens, A549, read-out: Percent inhibition of Alamar Blue Metabolism, etoposide 0.16 μM alone) was 38.7%. For the same compound, the inhibition at 0.31 µM in the data set with A549 cells (Homo sapiens, A549, read-out: Percent inhibition of Alamar Blue Metabolism, etoposide 0.31 μM alone) was determined as 42.7%. The inhibition at 0.63 µM in the data set on A549 cells (Homo sapiens, A549, read-out: Percent inhibition of Alamar Blue Metabolism, etoposide 0.63 μM alone) was found to be 52.4%. Moreover, the inhibition at 1.25 µM in the data set with A549 cells (Homo sapiens, A549, read-out: Percent inhibition of Alamar Blue Metabolism, etoposide 1.25 μM alone) turned out to be 62.8%. For the same compound, the inhibition at 2.5 µM with A549 cells (Homo sapiens, A549, read-out: Percent inhibition of Alamar Blue Metabolism, etoposide 2.50 μM alone) came to 76.1%. In addition, the inhibition at 5 µM with A549 cells (Homo sapiens, A549, read-out: Percent inhibition of Alamar Blue Metabolism, etoposide 5.00 μM alone) is 77.5%. The inhibition at 10 µM in the data set with A549 cells (Homo sapiens, A549, read-out: Percent inhibition of Alamar Blue Metabolism, etoposide 10.00 μM alone) is 79.4%.

On to `Nc1ccn([C@@H]2O[C@H](CO)[C@@H](O)C2(F)F)c(=O)n1` [Gemcitabine, gemcitabine], for which the inhibition at 0.00016 µM in the data set with A549 cells (Homo sapiens, A549, read-out: Percent inhibition of Alamar Blue Metabolism, gemcitabine 0.00016 μM alone) amounted to 7.9%. For the same compound, in the data set on A549 cells (Homo sapiens, A549, read-out: Percent inhibition of Alamar Blue Metabolism, gemcitabine 0.00033 μM alone), the inhibition at 0.00033 µM was determined as 19.1%. In the data set with A549 cells (Homo sapiens, A549, read-out: Percent inhibition of Alamar Blue Metabolism, gemcitabine 0.00066 μM alone), the inhibition at 0.00066 µM was 11.3%. The inhibition at 0.00131 µM in the data set on A549 cells (Homo sapiens, A549, read-out: Percent inhibition of Alamar Blue Metabolism, gemcitabine 0.00131 μM alone) is 12.3%. Besides, the inhibition at 0.00263 µM in the data set with A549 cells (Homo sapiens, A549, read-out: Percent inhibition of Alamar Blue Metabolism, gemcitabine 0.00263 μM alone) is 13.8%. Further, the inhibition at 0.00525 µM in the data set on A549 cells (Homo sapiens, A549, read-out: Percent inhibition of Alamar Blue Metabolism, gemcitabine 0.00525 μM alone) came out at 61.8%. Also, the inhibition at 0.0105 µM with A549 cells (Homo sapiens, A549, read-out: Percent inhibition of Alamar Blue Metabolism, gemcitabine 0.01050 μM alone) is 87.4%. Also, in the data set on A549 cells (Homo sapiens, A549, read-out: Percent inhibition of Alamar Blue Metabolism, gemcitabine 0.02100 μM alone), the inhibition at 0.021 µM is 88.7%. Further, in the data set with A549 cells (Homo sapiens, A549, read-out: Percent inhibition of Alamar Blue Metabolism, gemcitabine 0.04200 μM alone), the inhibition at 0.042 µM stood at 89.8%.

Take `N=C(N)c1ccc(OCCCCCOc2ccc(C(=N)N)cc2)cc1` [Pentamidine isethionate, 4,4′-diamidino-diphenoxypentane di(β-hydroxyethanesulfonate)]: the solubility result in data set [1] (in ether, acetone, and chloroform) is on record as “insoluble”; in data set [1] (in water and glycerin), “soluble”.

For the compound `CC[C@]1(O)C[C@@H]2CN(CCc3c([nH]c4ccccc34)[C@@](C(=O)OC)(c3cc4c(cc3OC)N(C)[C@H]3[C@@](O)(C(=O)OC)[C@H](OC(C)=O)[C@]5(CC)C=CCN6CC[C@]43[C@@H]65)C2)C1` [Vinblastine, vinblastine], the inhibition at 0.0001 µM with A549 cells (Homo sapiens, A549, read-out: Percent inhibition of Alamar Blue Metabolism, vinblastine 0.0001 μM alone) was -22.3%. Besides, the inhibition at 0.0002 µM in the data set with A549 cells (Homo sapiens, A549, read-out: Percent inhibition of Alamar Blue Metabolism, vinblastine 0.0002 μM alone) is -8.3%. For the same compound, the inhibition at 0.0004 µM in the data set with A549 cells (Homo sapiens, A549, read-out: Percent inhibition of Alamar Blue Metabolism, vinblastine 0.0004 μM alone) came out at 7.4%. Besides, the inhibition at 0.0008 µM with A549 cells (Homo sapiens, A549, read-out: Percent inhibition of Alamar Blue Metabolism, vinblastine 0.0008 μM alone) came to 41.5%. For the same compound, in the data set with A549 cells (Homo sapiens, A549, read-out: Percent inhibition of Alamar Blue Metabolism, vinblastine 0.0016 μM alone), the inhibition at 0.0016 µM was 48.4%. In the data set on A549 cells (Homo sapiens, A549, read-out: Percent inhibition of Alamar Blue Metabolism, vinblastine 0.0031 μM alone), the inhibition at 0.0031 µM worked out at 61.1%. Moreover, in the data set on A549 cells (Homo sapiens, A549, read-out: Percent inhibition of Alamar Blue Metabolism, vinblastine 0.0063 μM alone), the inhibition at 0.0063 µM stood at 67.2%. The inhibition at 0.0125 µM in the data set with A549 cells (Homo sapiens, A549, read-out: Percent inhibition of Alamar Blue Metabolism, vinblastine 0.0125 μM alone) came out at 77.2%. Besides, the inhibition at 0.025 µM in the data set with A549 cells (Homo sapiens, A549, read-out: Percent inhibition of Alamar Blue Metabolism, vinblastine 0.0250 μM alone) was determined as 85.5%.
